Test results reported in ChEMBL document CHEMBL1201862, “PubChem BioAssay data set” (2004).
Activity calls are given as the source filed them.

Assays:
[1] = NIH-3T3 fibroblast cytotoxicity, dose response, cytotoxicity control, cell-based, fluorescence, Alamar Blue, secondary assay (AID 2327); assay type: functional;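 also: NIH-3T3 mouse fibroblasts cultured with fluconazole at 8 µg/mL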
[2] = fluconazole-exposed Candida albicans growth modulators – fluorescence, retest, confirmation (AID 2467); assay type: functional, cell-based
[3] = biological target: DNA damage-inducible transcript 3 protein (Mus musculus, UniProt P35639); assay type: functional, Cricetulus griseus
X-box-binding protein 1 = X-box-binding protein 1 (Homo sapiens, UniProt P17861); assay type: functional, Cricetulus griseus;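 also: confirmatory dose-response counter-screen serving a CHOP assay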
[4] = biological target: G-protein coupled receptor 55 (Homo sapiens, UniProt Q9Y2T6); experiment: inhibition of LPI-stimulated GPR55 beta-arrestin translocation – imaging, U2OS, beta-arrestin-GFP, LPI agonist, primary screen (AID 2013); assay type: functional;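 also: antagonist potency measured as reduced agonist-driven arrestin aggregation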
Protein Rev = Protein Rev (Human immunodeficiency virus type 1 group M subtype B (isolate HXB2)(HIV-1), UniProt P04618); experiment: blockers of HIV Rev/RRE RNA complex – biochemical, fluorescence polarization, HIV-1, dose response (AID 434976); set-up: species or system Human immunodeficiency virus 1
[5] = biological target: Female germline-specific tumor suppressor gld-1 (Caenorhabditis elegans, UniProt Q17339); experiment: blockers of GLD-1/TGE RNA complex formation – biochemical, fluorescence polarization, C. elegans, dose response (AID 2802);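 also: fluorescence polarization of labeled TGE RNA bound by purified gld-1 protein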
CHO = CHO cell viability loss, potency – luminescence, cytotoxicity control for TLR9-MyD88 binding inhibitor project, dose response (AID 588339); assay type: functional, cell-based, hamster; details: Cricetulus griseus;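 also: CHO cells stably coexpressing TLR9 and MyD88 fusions from primary screen; compound exposure lasted 48 hours before viability readout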
Beta Lactamase = Beta Lactamase (Pseudomonas aeruginosa, UniProt Q932Y6); experiment: BLA reporter interference, concentration series – BLA reporter cells, FRET fluorescence, artefact control for TLR9-MyD88 binding inhibitor project, dose response (AID 588341); assay type: cell-based;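 also: cell based assay in CHO-K1 cells stably expressing beta-lactamase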
[6] = biological target: T1, Polyadenylate-binding protein 1 (Homo sapiens, UniProt P11940); experiment: MLLE binding blockers, Cy5 peptide tracer – biochemical, fluorescence polarization, Cy5-PAM2 peptide, secondary, miRNA deadenylation inhibitor project, dose response (AID 602260); assay type: functional; details: read-out: IC50_Mean
[7] = biological target: T1, Polyadenylate-binding protein 1; experiment: MLLE domain peptide-binding blockers, IC50 – biochemical, fluorescence polarization, FITC-PAM2 peptide, dose response (AID 602259); assay type: functional; details: read-out: IC50_Mean
[8] = biological target: 1-acylglycerol-3-phosphate O-acyltransferase ABHD5/Perilipin-5 (Homo sapiens, UniProt Q00G26+Q8WTS1); experiment: Luminescence-based biochemical high throughput dose response assay for inhibitors of the interaction of the lipase co-activator protein, abhydrolase domain containing 5 (ABHD5) with perilipin-5 (MLDP; PLIN5) (2K validation set). [Related pubchem assays (depositor defined):AID493035, AID493241]
Perilipin-1/ABHD5 = Perilipin-1/ABHD5 (Homo sapiens, UniProt O60240+Q8WTS1); experiment: Luminescence-based biochemical high throughput dose response assay for inhibitors of the interaction of the lipase co-activator protein, abhydrolase domain containing 5 (ABHD5) with perilipin-1 (PLIN1) (2K validation set). [Related pubchem assays (depositor defined):AID493027, AID493057]
HEK293 [9] = experiment: inhibition of NOD1-driven NF-kB reporter – cell-based, luminescence, uHTS, primary screen (AID 1578); assay type: functional; details: Homo sapiens
HEK293 [10] = experiment: cells; assay type: functional, cell-based; details: Homo sapiens
HEK293 [11] = experiment: cells; assay type: functional, cell-based; details: Homo sapiens; remark: listed apart in the source
[12] = biological target: Nucleotide-binding oligomerization domain-containing protein 2 (Homo sapiens, UniProt Q9HC29); experiment: inhibition of NOD2-driven NF-kB reporter – cell-based, luminescence, uHTS, HEK293 (AID 1566); assay type: functional
HEK293 [13] = experiment: NOD2 signaling inhibitors in MDP-stimulated cells, cell-based, uHTS, luminescence (AID 2001); assay type: functional; details: Homo sapiens
HEK293 [14] = experiment: cells; assay type: functional, cell-based; details: Homo sapiens; remark: listed apart in the source
Coagulation factor XII = biological target: T2, Coagulation factor XII (Homo sapiens, UniProt P00748); experiment: activated coagulation factor XII inhibitor potency, concentration-effect curve, cell-free (AID 716); assay type: functional
T2 sequence (P00748 whole entry): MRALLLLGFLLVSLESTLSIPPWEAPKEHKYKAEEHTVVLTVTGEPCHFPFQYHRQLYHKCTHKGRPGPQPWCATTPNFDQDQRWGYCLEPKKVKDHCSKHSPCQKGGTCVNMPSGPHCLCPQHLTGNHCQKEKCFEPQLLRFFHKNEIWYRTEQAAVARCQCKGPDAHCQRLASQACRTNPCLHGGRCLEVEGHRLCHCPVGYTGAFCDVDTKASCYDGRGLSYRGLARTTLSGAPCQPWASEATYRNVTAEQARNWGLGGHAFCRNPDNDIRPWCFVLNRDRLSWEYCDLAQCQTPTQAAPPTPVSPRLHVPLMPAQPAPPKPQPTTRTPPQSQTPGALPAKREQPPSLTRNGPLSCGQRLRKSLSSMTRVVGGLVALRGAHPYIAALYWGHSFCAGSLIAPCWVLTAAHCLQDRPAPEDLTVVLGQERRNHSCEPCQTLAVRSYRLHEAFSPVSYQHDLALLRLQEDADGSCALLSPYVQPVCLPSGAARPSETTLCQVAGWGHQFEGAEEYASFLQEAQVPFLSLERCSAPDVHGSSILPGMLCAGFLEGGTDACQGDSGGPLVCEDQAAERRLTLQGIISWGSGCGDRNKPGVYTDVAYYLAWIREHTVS

[15] = biological target: T3, Voltage-gated N-type calcium channel alpha-1B subunit/Amyloid beta A4 precursor protein-binding family A member 1 (Homo sapiens, UniProt Q00975+Q02410); assay type: protein assay
[16] = biological target: T3, Voltage-gated N-type calcium channel alpha-1B subunit/Amyloid beta A4 precursor protein-binding family A member 1; assay type: protein assay; remark: listed apart in the source
Troponin, cardiac muscle = Troponin, cardiac muscle (Homo sapiens, UniProt P19429+P45379+P63316); experiment: Fluorescence-based biochemical high throughput dose response assay for activators of the calcium sensitivity of cardiac Regulated Thin Filaments (RTF). [Related pubchem assays (depositor defined):AID493008, AID493018, AID504382, AID504383]; assay type: protein-complex assay
[17] = biological target: T4, E3 ubiquitin-protein ligase XIAP (Homo sapiens, UniProt P98170); experiment: Counter Screen using XIAP-Bir3 for Chemical Antagonists of Bir1/2 domains of IAP-family anti-apoptotic proteins. [Related pubchem assays (depositor defined):AID1018, AID1449, AID1514, AID1638, AID1749, AID1750, AID488957, AID488963]
[18] = biological target: T4, E3 ubiquitin-protein ligase XIAP; experiment: small molecules displacing peptide from XIAP – biochemical, IAP family, fluorescence polarization (AID 1018); assay type: functional
[19] = biological target: T5, Rac GTPase-activating protein 1 (Homo sapiens, UniProt Q9H0H5); experiment: blockers of MgcRacGAP-driven Rac1 GTP hydrolysis – biochemical, ADP Hunter fluorescence, primary and confirmatory, confirmation (AID 624330); assay type: functional
T5 sequence (Q9H0H5 whole entry): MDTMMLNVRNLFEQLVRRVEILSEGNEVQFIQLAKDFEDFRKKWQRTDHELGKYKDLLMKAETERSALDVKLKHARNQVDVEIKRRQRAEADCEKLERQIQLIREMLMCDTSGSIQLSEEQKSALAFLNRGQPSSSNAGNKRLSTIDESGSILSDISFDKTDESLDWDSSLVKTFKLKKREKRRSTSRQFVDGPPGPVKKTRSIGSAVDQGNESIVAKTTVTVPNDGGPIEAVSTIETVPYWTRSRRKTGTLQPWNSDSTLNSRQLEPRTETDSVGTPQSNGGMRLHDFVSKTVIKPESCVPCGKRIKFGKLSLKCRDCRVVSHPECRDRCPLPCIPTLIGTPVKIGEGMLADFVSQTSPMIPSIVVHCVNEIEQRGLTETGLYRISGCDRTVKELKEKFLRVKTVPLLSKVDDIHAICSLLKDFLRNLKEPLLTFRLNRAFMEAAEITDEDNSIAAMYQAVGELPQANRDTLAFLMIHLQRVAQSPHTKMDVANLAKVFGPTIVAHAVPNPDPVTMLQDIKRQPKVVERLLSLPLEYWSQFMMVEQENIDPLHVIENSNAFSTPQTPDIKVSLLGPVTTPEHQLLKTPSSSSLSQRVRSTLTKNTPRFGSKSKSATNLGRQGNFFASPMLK

[20] = biological target: Glyceraldehyde-3-phosphate dehydrogenase (Homo sapiens, UniProt P04406)
[21] = biological target: Alkaline phosphatase, placental type (Homo sapiens, UniProt P05187); experiment: human placental alkaline phosphatase inhibition – biochemical, luminescence, confirmation (AID 1512); assay type: functional
[22] = biological target: T6, Alkaline phosphatase, tissue-nonspecific isozyme (Homo sapiens, UniProt P05186); experiment: potency against alkaline phosphatase TNAP – biochemical, luminescent, dose response, SAR follow-up (AID 1056)
T6 sequence (P05186 whole entry): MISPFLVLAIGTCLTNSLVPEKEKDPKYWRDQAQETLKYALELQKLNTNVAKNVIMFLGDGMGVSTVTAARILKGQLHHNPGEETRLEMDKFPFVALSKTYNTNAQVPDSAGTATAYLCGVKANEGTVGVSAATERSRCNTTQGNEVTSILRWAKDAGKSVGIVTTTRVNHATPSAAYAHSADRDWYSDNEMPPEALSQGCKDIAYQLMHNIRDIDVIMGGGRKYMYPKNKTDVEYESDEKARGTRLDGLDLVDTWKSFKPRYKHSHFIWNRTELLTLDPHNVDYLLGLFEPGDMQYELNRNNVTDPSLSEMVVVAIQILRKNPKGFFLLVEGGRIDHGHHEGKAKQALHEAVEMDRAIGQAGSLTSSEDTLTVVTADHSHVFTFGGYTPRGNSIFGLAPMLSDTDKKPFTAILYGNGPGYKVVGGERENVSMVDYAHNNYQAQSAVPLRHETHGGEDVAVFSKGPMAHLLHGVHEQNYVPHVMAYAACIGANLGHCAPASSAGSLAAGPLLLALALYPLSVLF

Beta-galactosidase = Beta-galactosidase (Escherichia coli, UniProt Q8VNN2); experiment: detection-enzyme interference by beta-gal modulators – biochemical, E. coli enzyme, set 3, artefact control for CCR6 antagonist project, dose response (AID 504712); assay type: functional
[23] = HEK-293T viability loss after treatment – luminescence, T-cell screen hits, cytotoxicity control for TCR NF-kB inhibitor project, dose response (AID 489026); assay type: functional, cell-based;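 also: cells exposed to compound about 14 hours before the viability readout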

CCCc1ccc(Oc2c[nH]nc2-c2ccc(O)cc2O)cc1
EC50 [1]: > 150 µM (inconclusive)
EC50 [2]: > 38 µM (not active)
Absolute IC50 (CHOP) [3]: 10 µM
Absolute IC50 (XBP1) (X-box-binding protein 1): 10 µM

S=C(Nc1ccc(Oc2ccccc2)cc1)N(CCCN1CCOCC1)Cc1ccccn1
IC50 [4]: 2.71 µM (active)

O=C(CN1C(=O)NC2(CCCCC2)C1=O)Oc1ccc2c(C(F)(F)F)cc(=O)oc2c1
IC50 (Protein Rev): 65.3 µM (not active)
IC50 [5]: 4.07 µM (active)
IC50 (CHO): > 49.7 µM (inactive)
IC50 (Beta Lactamase): 3.48 µM (active)
IC50 [6]: > 66 µM (inactive)
IC50 [7]: 38.3 µM (inactive)

COc1ccc(C(=O)/C=C/c2cc(C(=O)O)cc3c2OCOC3)c(O)c1
IC50 [8]: 6.24 µM (active)
IC50 (Perilipin-1/ABHD5): 4.42 µM (active)

O=C(Nc1ccc(Cl)cc1)c1cccc(N2C(=O)C3C4CCC(C4)C3C2=O)c1 (stereo not drawn)
EC50 (HEK293 [9]): 12 µM (active)
IC50 (HEK293 [10]): 15.7 µM (active)
IC50 (HEK293 [11]): > 20 µM (inactive)
EC50 [12]: > 20 µM (inactive)
IC50 (HEK293 [13]): 16.7 µM (inactive)
IC50 (HEK293 [14]): > 20 µM (inactive)

COc1ccc(NS(=O)(=O)c2ccc(Cl)s2)cn1
IC50 (Protein Rev): 6.3 µM (active)
IC50 [5]: 4.54 µM (active)
IC50 [6]: > 66 µM (inactive)
IC50 [7]: 14.9 µM (active)

COC(=O)COc1cccc(-n2cnnn2)c1
IC50 (Coagulation factor XII): > 50 µM (inactive)

COc1ccc(/C=C/C(=O)NC(=S)Nc2ccc(S(=O)(=O)N=C(N)N)cc2)cc1OC
IC50 [15]: 4.65 µM (active)
IC50 [16]: > 50 µM (inactive)

CCCN1CCc2c(sc(NC(=S)NC(=O)c3ccccc3)c2C#N)C1
EC50 (Troponin, cardiac muscle): 3.73 µM (active)

CCc1ccc2c(COC(=O)CNS(=O)(=O)c3ccc(NC(C)=O)cc3)cc(=O)oc2c1
EC50 (Troponin, cardiac muscle): > 71.5 µM (inactive)

O=C(/C=C/Nc1ccc(Nc2ccccc2)cc1)c1cccs1
IC50 [17]: > 100 µM (inactive)
IC50 [18]: > 100 µM (not active)
IC50 [19]: 230 µM (active)

O=C(c1cc(-c2ccc(Cl)cc2Cl)n[nH]1)N1CCCCC1
IC50 [20]: > 100 µM (not active)
IC50 [21]: > 100 µM (inactive)
IC50 [22]: 2.52 µM (active)

CCCCN1C(=O)/C(=N\Nc2ccccc2F)c2ccccc21
IC50 [21]: 78.5 µM (active)
IC50 [22]: > 100 µM (inactive)

CCCCNS(=O)(=O)c1ccc2nc(-c3cccnc3)cc(C(=O)NC3CCCC3)c2c1
Absolute IC50 (CHOP) [3]: 10 µM

COCC/N=c1\scc(-c2ccc3c(c2)NC(=O)CO3)n1/N=C(\C)c1ccc(O)cc1
IC50 (Beta-galactosidase): > 66.6 µM (inactive)

COC(=O)c1ccc(COc2ccc(/C=N/Nc3nc(C)cc(O)n3)cc2)cc1
IC50 [15]: > 56.8 µM (not active)
IC50 [16]: > 50 µM (inactive)

C=CCOC(=O)C1=C(C)N=C(C)/C(=C(/O)OCC=C)C1c1ccc(O)cc1 (stereo not drawn)
IC50 (Coagulation factor XII): > 50 µM (inactive)

COC(=O)Cc1nn(-c2nc3ccccc3s2)c(O)c1/C(C)=N/c1ccc(OC)cc1
EC50 (HEK293 [9]): < 0.31 µM (inactive)
IC50 (HEK293 [10]): 1.13 µM (active)
IC50 (HEK293 [11]): > 20 µM (inactive)
EC50 [12]: 0.1 µM (active)
IC50 (HEK293 [13]): 0.103 µM (active)
IC50 (HEK293 [14]): > 20 µM (inactive)
IC50 [23]: > 80 µM (inactive)
